The source of these data is publication PMC7696938, “Cinnamides Target Leishmania amazonensis Arginase Selectively” (Molecules, 2020).

Where “and” joins values, the source holds several entries; their conditions need not be identical. Identical values can stand only once. Like-named read-outs stand apart in the source and are kept apart here.

Assay [1] addresses T1, Leishmania amazonensis recombinant arginase (L-ARG) (Leishmania amazonensis, UniProt O96394). The experiment in a line: Determination of Ki, Kis and mechanism of inhibition of L-ARG (Dixon and Cornish-Bowden plots). In kind it is biochemical. The settings on record: for Mode of Inhibition: L-ARG; for Ki / Kis: L-arginine 25, 50, 100 mM, pH 9.5. The protocol: All reactions were performed in 50 mM CHES buffer, pH 9.5, containing variable concentrations of the substrate L-arginine (25, 50, and 100 mM) at pH 9.5. Inhibitors were tested at three different concentrations close to the IC50. All reactions were performed in triplicate in two independent experiments. Urea was quantified according to the Berthelot method using commercial reagents as previously described. The constant Ki was determined for competitive and mixed inhibitors, and Ki’ was determined uncompetitive and mixed using a Dixon and Cornish–Bowden plots. For non-competitive inhibitors, Ki and K’i values were the same, and y = 0 was determined to obtain that value.

For assay [2], the target named is T1, Leishmania amazonensis recombinant arginase (L-ARG). In words: Arginase inhibition test, recombinant L-ARG (urea, Berthelot method). In kind it is biochemical. More on the design: Emax: dose or concentration left out as unconfirmed. The protocol:
(§1) Recombinant L-ARG was expressed and purified as previously described. Briefly, Escherichia coli, containing arginase gene cloned in plasmid DNA, was grown in SOB (Super Optimal Broth) medium at 37 °C until it reached absorbance 0.6 at 600 nm. Then the recombinant L-ARG expression was induced with a final concentration of IPTG (isopropyl β-D-1-thiogalactopyranoside) 1 mM and MnSO4 10 mM for 3 h. The cells were harvested and lysed in 1 mL of buffer A (MOPS 100 mM, pH 7,2, NaCl 500 mM) containing PMSF (phenylmethanesulfonyl fluoride) 1 mM and 10% of CelLytic™ B. After lysis, the homogenate was centrifuged at 12,000× g for 10 min. Arginase in the supernatant was purified as previously described.
(§2) A stock solution (70 mM) was prepared in DMSO and stored at −20 °C for each compound just before the experiment. The inhibitory test was performed with 50 mM of L-arginine (pH 9.5), 50 mM CHES buffer (pH 9.5), and enzyme at 5 nM. The sample was incubated in a water bath at 37 °C for 15 min. Urea was quantified according to the Berthelot method, using commercial reagents. Briefly, the catalytic activity of the arginase reaction was stopped by transferring 2 μL of the reaction mixture into 150 μL of reagent I (20 mM phosphate buffer, pH 7, containing 60 mM Salicylate, 1 mM sodium nitroprusside, and >500 IU of urease). This mixture was incubated at 37 °C for 5 min. Next, 150 μL of reagent II (sodium hypochlorite 10 mM and NaOH 150 mM) was added, and the samples were incubated at 37 °C for 5 min. Measurement was taken at 600 nm using an Epoch 2 microplate reader (BioTek Instruments, Inc.). Two independent experiments were performed in triplicate until a coefficient of non-linear regression R^2 ≥ 0.95 was obtained. The sigmoidal model (log IC50) was used to determine IC50 and maximum effect (Emax) in GraphPad-Prism 6.01 software for Windows (San Diego, CA, USA).

Assay [3] has as its system Leishmania amazonensis recombinant arginase (L-ARG). The description is as above. More on the design: Emax: dose or concentration left out as unconfirmed. In kind it is biochemical. The settings on record: for Selective Index: L-ARG over B-ARG (bovine IC50 vs L. amazonensis IC50). The protocol: as §1, §2
The target of the next assay is bovine arginase (B-ARG). More on the design: method as in PMID 27690022. The settings on record: cited from earlier work.
The target of a further assay is human arginase (h-ARG). More on the design: method as in PMID 27690022. The settings on record: cited from earlier work.
In assay [4] the test system is L. amazonensis promastigotes. In words: Promastigote growth inhibition (MTT). Type of assay: cell-based. The settings on record: Leishmania amazonensis, 78 h. The protocol: Promastigote forms of the strain MHO were inoculated initially in the concentration of 5 × 10^5 parasites/mL in M199 medium (Life Technologie, Carlsbad, CA, USA), pH 7.4, supplemented with 10% of fetal bovine serum, (50 µg/mL) streptomycin, and (100 U) penicillin at 24 °C. Cells were grown until they reached the stationary phase. After this, 998 μL of the culture at 5.0 × 10^5 cells/mL was incubated with 2 μL of the inhibitors (50 to 0.0005 mM) dissolved in DMSO to obtain final concentrations of 100 to 0.001 μM. Amphotericin B was used as a control of the cell growth inhibition, in a concentration varying from 60 to 0.0006 μM dissolved in DMSO. […] After this inhibition period, the surviving cells were washed twice with HBSS (Gibco), centrifuged at 2000× g for 10 min, and supernatant was removed. To verify the parasite viability, over the pellet of cells about 1000 µL of M199 medium content was added, with 5 mg/mL of MTT (3-(4,5-dimethylthiazol-2-yl)-2, 5-diphenyltetrazolium bromide, a tetrazole) (Sigma-Aldrich, St. Louis, MO, USA). Surviving parasites were exposed to MTT during 12 h at 34 °C in a CO2 chamber. After this period, the cells were centrifuged for 10 min at 2000× g and the supernatant was removed. Formazan crystals that were formed in the cells were dissolved with DMSO, the absorbance was read using an Epoch 2 Microplate Spectrophotometer at 600 nm.

The target of assay [5] is T1, Leishmania amazonensis recombinant arginase (L-ARG). More on the design: method as in PMID 30216691. The settings on record: Table 2, unit inferred; read-out: IC50 inhibition of arginase, L. amazonensis; cited from earlier work.
Setting [6] is: 50 mM L-arginine, pH 9.5, 37 °C, 15 min, read-out: IC50 (half inhibitory activity), L-ARG.
Setting [7] is: Table 2, unit inferred, read-out: IC50 inhibition of arginase, L. amazonensis.
The mark [8] stands for this setting: read-out: Emax (maximal inhibitory activity).
Where [9] appears, read: Table 2, unit inferred, read-out: IC50 inhibition of arginase, Bovine.

As a reminder, the Ki is a dissociation constant, usually derived from enzyme kinetics or from competition with a known ligand. A word on the IC50: it is the midpoint of a concentration-inhibition curve. Broadly, the Emax is the greatest response seen or fitted, relative to the assay's reference. `COC(=O)C(Cc1ccc(O)c(O)c1)NC(=O)/C=C/c1ccc(O)c(O)c1` (centres unmarked) [Compound 18]: in assay [1], the “Mode of Inhibition” value is “Mixed”, the Ki worked out at 3.9 ± 0.4 µM and the Kis is 27 ± 8 µM. Besides, in assay [2] (setting [6]), the IC50 came to 4 ± 1 µM. Further, the IC50 in assay [2] (setting [7]) came to 4 ± 1 µM. The Emax at 100 µM in assay [2] (setting [8]) worked out at 89 ± 3%. Further, the “Selective Index” value in assay [3] is given as 10. In addition, the concentration for half-maximal inhibition (IC50) on bovine arginase (B-ARG) (setting [9]) was 41.9 ± 1.3 µM.
As for `O=C(/C=C/c1ccc(O)c(O)c1)NCCc1ccc(O)cc1` [Compound 6], the “Mode of Inhibition” value in assay [1] is “Competitive”. Further, the Ki in assay [1] is 4.4 ± 1.1 µM. The half-inhibitory concentration (IC50) in assay [2] (setting [6]) was 5.6 ± 0.4 µM; in assay [2] (setting [7]) it was 5.6 ± 0.4 µM; on bovine arginase (B-ARG) (setting [9]), 22.1 ± 1.6 µM. Further, the Emax at 100 µM in assay [2] (setting [8]) turned out to be 82 ± 2%. Besides, the “Selective Index” value in assay [3] is reported as 4.
In the case of `COc1cc(/C=C/C(=O)NCCc2ccc(O)c(O)c2)cc(OC)c1OC` [Compound 14], the “Mode of Inhibition” value in assay [1] is listed as “Competitive”. The inhibition constant Ki in assay [1] worked out at 1.2 ± 0.3 µM. Also, the IC50 in assay [2] (setting [6]) was 2.4 ± 0.9 µM; in assay [2] (setting [7]) it was 2.4 ± 0.9 µM; on bovine arginase (B-ARG) (setting [9]), 193.6 ± 1.4 µM. In assay [2] (setting [8]), the maximum response (Emax) at 100 µM turned out to be 81 ± 2%. For the same compound, the “Selective Index” value in assay [3] is 81.
In the case of `O=C(/C=C/c1ccc(O)c(O)c1)NCCc1ccccc1` [CAPA, caffeic acid phenethyl amide], in assay [1], the “Mode of Inhibition” value is “Competitive”. The Ki in assay [1] is 3.9 ± 1 µM. Further, the IC50 on human arginase (h-ARG) is 60.3 µM and 60 µM; in assay [2] (setting [6]) it was 6.9 ± 0.7 µM; in assay [2] (setting [7]) it was 6.9 ± 0.7 µM; on bovine arginase (B-ARG) (setting [9]), 6.9 ± 1.3 µM; in assay [4], 82.6 µM. Also, the maximal effect (Emax) at 100 µM in assay [2] (setting [8]) came out at 79 ± 1%. For the same compound, the “potency against L-ARG relative to human arginase” value in assay [3] (L-ARG IC50 vs human arginase IC50) amounted to 9 fold. Moreover, the “Selective Index” value in assay [3] is 1. Besides, the “mode of inhibition of bovine arginase” value in the assay with bovine arginase (B-ARG) is “competitive inhibition”.
Take `O=C(/C=C/c1ccc(O)cc1)NCCc1ccc(O)c(O)c1` [Compound 13]: the “Mode of Inhibition” value in assay [1] is reported as “Competitive”. For the same compound, the Ki in assay [1] was 1.6 ± 0.2 µM. The IC50 in assay [2] (setting [6]) was 2.5 ± 0.2 µM; in assay [2] (setting [7]), 2.5 ± 0.2 µM; at bovine arginase (B-ARG) (setting [9]), 170.4 ± 1.7 µM. Further, the Emax at 100 µM in assay [2] (setting [8]) was determined as 82 ± 1%. For the same compound, the “Selective Index” value in assay [3] came to 68.
On to `O=C(NCCc1ccc(O)cc1)c1ccc(O)c(O)c1` [Compound 17], for which the “Mode of Inhibition” value in assay [1] is given as “Competitive”. Further, the inhibition constant (Ki) in assay [1] turned out to be 11.4 ± 0.7 µM. For the same compound, the IC50 is 17.8 µM and 18 µM in assay [2] (setting [6]); 18 ± 3 µM in assay [2] (setting [7]); 175.3 ± 1.5 µM at bovine arginase (B-ARG) (setting [9]). Further, the Emax at 100 µM in assay [2] (setting [8]) was 68 ± 2%. The “Selective Index” value in assay [3] was determined as 10.
Take `COC(=O)C(CS)NC(=O)/C=C/c1ccc(O)c(O)c1` (centres unmarked) [Compound 19]: the “Mode of Inhibition” value in assay [1] is “Mixed”. In addition, the Ki in assay [1] amounted to 6.6 ± 0.3 µM. In addition, the Kis in assay [1] is 28 ± 4 µM. In addition, the results for the IC50 (in assay [2] (setting [6]); in assay [2] (setting [7]); on bovine arginase (B-ARG) (setting [9])) were 9 ± 1 µM, 9 ± 1 µM and 37 ± 1.3 µM, respectively. The maximal effect (Emax) at 100 µM in assay [2] (setting [8]) amounted to 90 ± 3%. For the same compound, the “Selective Index” value in assay [3] was 4.
Turning to `O=C(/C=C/c1ccccc1)NCCc1ccc(O)c(O)c1` [Compound 15], in assay [1], the “Mode of Inhibition” value was “Mixed”, the Ki worked out at 1.4 ± 0.2 µM and the Kis is on record as 5 ± 1 µM. Besides, the half-maximal inhibitory concentration (IC50) in assay [2] (setting [7]) was 1.3 ± 0.1 µM. Also, the maximal effect (Emax) in assay [2] (setting [8]) is 80 ± 1%. For the same compound, in assay [3], the “Selective Index” value was determined as 30. Also, the half-inhibitory concentration (IC50) on bovine arginase (B-ARG) (setting [9]) was 39.3 ± 1.4 µM.
On to `COc1cc(/C=C/C(=O)NCCc2ccc(O)c(O)c2)ccc1O` [Compound 12], for which, in assay [1], the “Mode of Inhibition” value is on record as “Noncompetitive”, the Ki stood at 9.6 ± 0.7 µM and the Kis was determined as 9.6 ± 0.7 µM. Further, the IC50 in assay [2] (setting [6]) came to 6.5 ± 1.4 µM. In addition, the IC50 in assay [2] (setting [7]) stood at 6.5 ± 1.4 µM. The Emax at 100 µM in assay [2] (setting [8]) was found to be 75 ± 2%. Besides, in assay [3], the “Selective Index” value is given as 31. At bovine arginase (B-ARG) (setting [9]), the concentration for half-maximal inhibition (IC50) was 198.7 ± 1.4 µM.
As to `O=C(/C=C/c1ccc(O)c(O)c1)O[C@@H]1C[C@](O)(C(=O)O)C[C@@H](O)[C@H]1O` [Chlorogenic acid, reference compound], the “Selective Index” value in assay [3] is on record as 1.3. The half-maximal inhibitory concentration (IC50) on bovine arginase (B-ARG) (setting [9]) was 10.6 ± 1.6 µM; at bovine arginase (B-ARG) (read-out: IC50, bovine arginase), ~10 µM.
For `O=C(/C=C/c1ccc(O)c(O)c1)NCCc1ccc(O)c(O)c1` [Compound 11], in assay [1], the “Mode of Inhibition” value is listed as “Uncompetitive”. The Kis in assay [1] was 2.5 ± 0.2 µM. Also, the half-inhibitory concentration (IC50) in assay [2] (setting [6]) was 1.8 ± 0.1 µM; in assay [2] (setting [7]), 1.8 ± 0.1 µM; on bovine arginase (B-ARG) (setting [9]), 115 ± 1.3 µM. The Emax at 100 µM in assay [2] (setting [8]) is 81 ± 2%. The “Selective Index” value in assay [3] is 64.
In the case of `O=C(O)/C=C/c1ccc(O)c(O)c1` [Caffeic acid, reference compound], in assay [3], the “Selective Index” value stood at 58. Also, the IC50 is 86.7 ± 8 µM at bovine arginase (B-ARG) (setting [9]) and 1.5 ± 0.3 µM in assay [5].
